{"source": "patent US20110189243A1", "about": "“PHARMACEUTICAL FORMULATION FOR LOWERING PULMONARY BLOOD PRESSURE” (Ratiopharm GMBH, priority 2008, published 2011)", "test": "Particle size by laser diffractometry (Malvern Mastersizer 2000)", "type": "physicochemical", "details": "after milling 30 minutes at 350 rpm in a Retsch ball mill", "protocol": "The expression “average particle diameter” relates in the context of this invention to the D50 value of the volume-average particle diameter determined by means of laser diffractometry. In particular, a Malvern Instruments Mastersizer 2000 was used to determine the diameter (wet measurement, 2,000 rpm, ultrasound 60 sec., preferably shading 4 to 13%, preferably dispersion in liquid paraffin, the evaluation using the Fraunhofer method). The average particle diameter, which is also referred to as the D50 value of the integral volume distribution, is defined in the context of this invention as the particle diameter at which 50% by volume of the particles have a smaller diameter than the diameter which corresponds to the D50 value. Similarly, 50% by volume of the particles than have a larger diameter than the D50 value. Analogously, the D10 value of the integral volume distribution is defined as the particle diameter at which 10% by volume of the particles have a smaller diameter than the diameter which corresponds to the D10 value. Accordingly, the D90 value of the integral volume distribution is defined as the particle diameter at which 90% by volume of the particles have a smaller diameter than the diameter which corresponds to the D90 value.", "data": [{"smiles": "COC(c1ccccc1)(c1ccccc1)[C@H](Oc1nc(C)cc(C)n1)C(=O)O", "note": "[Example 3, (2S)-2-(4,6-dimethylpyrimidin-2-yl)oxy-3-methoxy-3,3-di(phenyl)propanoic acid]", "values": [{"measurement": "particle size d10", "result": 5, "unit": "μm"}, {"measurement": "particle size d50", "result": 18, "unit": "μm"}, {"measurement": "particle size d90", "result": 63, "unit": "μm"}]}]}
